We go through 2 molecules from patent US9107879B1, “Methods of increasing the cytotoxicity of chemotherapeutic agents with multisubstrate inhibitors of histone, protein-lys, polyamine acetylation, and polyamine metabolism” (Vanderbilt University, priority 2010, dated 2015).

One may read the Ki as the equilibrium dissociation constant of an inhibitor or competing ligand from its target. As usually defined, the IC50 is the concentration that inhibits the measured activity by half.

Experiment [1] relates to normal GT41F human skin fibroblast cells. The experiment can be described thus: [3H]-thymidine incorporation DNA synthesis assay. It counts as cell-based. The following applies: 1a 50 μM; camptothecin 5 nM 18 hours. From the text: Cells were either labeled immediately before treatment (starting DNA synthesis rate), or subjected to the indicated treatments and then pulsed on successive days until day 4. DNA synthesis is represented as the percent of starting DNA synthesis rate.
The present inventors used a 96-well viability assays as described in Saadatmandi et al (Cancer Gene Therapy (2002) 9:930-9) to examine the effect of the spermidine-CoA inhibitor disclosed previously on DNA synthesis in normal GT41F human skin fibroblast cells, as well as its combined effect with camptothecin. GT41F cells were plated in 96-well plates at 3000 cells per well. […] Following the 6-hour labeling, cells were harvested and incorporation of [^3H]-thymidine was determined by scintillation counting.

For another experiment, the system named is H358 lung cancer cells. Description: [3H]-thymidine incorporation DNA synthesis assay. It counts as cell-based. Particulars: Homo sapiens, NCI-H358; Example 1: 50 μM 1a (continuous) + 5 nM camptothecin (24 h); 48 hours post treatment; read-out: DNA synthesis rate, % of control rate. For orientation: Incorporation of labelled thymidine or its analogues reports DNA synthesis.

For experiment [2], the target named is T1, recombinant p300 (1284-1660) (Homo sapiens, UniProt Q09472).
T1 construct: p300 protein (residues 1284-1660); made in house
T1 sequence (Q09472 1284-1660): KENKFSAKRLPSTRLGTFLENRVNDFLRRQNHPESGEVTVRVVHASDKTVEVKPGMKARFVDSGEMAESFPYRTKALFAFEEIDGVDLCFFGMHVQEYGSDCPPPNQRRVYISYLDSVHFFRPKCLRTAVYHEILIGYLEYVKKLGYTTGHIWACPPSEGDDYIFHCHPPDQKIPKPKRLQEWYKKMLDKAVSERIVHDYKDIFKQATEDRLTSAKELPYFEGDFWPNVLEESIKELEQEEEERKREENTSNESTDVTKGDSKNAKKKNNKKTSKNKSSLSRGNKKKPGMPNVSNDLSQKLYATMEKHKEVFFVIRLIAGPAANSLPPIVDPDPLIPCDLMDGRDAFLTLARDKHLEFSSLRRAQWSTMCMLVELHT
The experiment can be described thus: p300 HAT solution assay, H4 peptide substrate, DTNB detection. It counts as biochemical. Here is the method: (A) Structures of compound 1a (spermidine CoA), and the acetylated side chain of a lysine residue of a polypeptide chain. (B) Inhibition of p300 acetylating activity as a function of 1a concentration. The catalytic domain of recombinant p300 (1284-1660) was assayed under steady state conditions using an N-terminal acetylated histone H4 peptide substrate, Ac-H4(1-19)-NH2. Closed circles represent experimental data points; plain line represents theoretical profile based on data reduction software (Prism) using a one site inhibition model. (C) In vitro assay of p300 activity using a 96-well assay kit (ActivMotif) and an H3 peptide substrate (5-23), according to manufacturer's instructions. Bars represent average of duplicates. BK=background (no enzyme); C=control (no inhibitor); [1a]=50 μM.
Assays were performed using the fluorescent HAT assay kit (Active Motif, Carlsbad, Calif.), an H3 peptide as substrate (residues 5-23), the p300 catalytic domain as enzyme, and 50 μM inhibitor in duplicate, according to the manufacturer's instructions. […] The reaction product, CoASH, was detected spectrophotometrically by reaction with 5,5′-dithiobis-2-nitrobenzoic acid (DTNB). Assays were carried out at 30° C. for 30 minutes, conditions which had previously been determined in kinetic assays to sufficient to achieve steady state. […]

In the case of `CC[C@@]1(O)C(=O)OCc2c1cc1n(c2=O)Cc2cc3ccccc3nc2-1` [camptothecin], the “effect on incorporation of [3H]-thymidine, single agent” value in experiment [1] is on record as “virtually no effect”.
Consider `CC(C)(COP(=O)(O)OP(=O)(O)OC[C@H]1O[C@@H](n2cnc3c(N)ncnc32)[C@H](O)[C@@H]1OP(=O)(O)O)[C@@H](O)C(=O)NCCC(=O)NCCSCC(=O)NCCCNCCCCN` [1a, spermidine[N1]-CoA], for which, in the experiment on H358 lung cancer cells, the activity at 50 µM is approximately 10%. In addition, the Ki in experiment [2] (from IC50=Ki(1+Km/S)≅Ki under substrate excess, read-out: estimated Ki for p300 fragment) is 50 to 100 µM. The IC50 in experiment [2] (histone H4 N-terminal peptide substrate, inferred from inhibitory plot, one site model, read-out: IC50, p300HAT catalytic subunit activity) lay in the range of 50 to 100 µM.
